Laboratory results as given in patent US20240327852A1, “METHODS OF TRANSFORMATION” (SYNGENTA CROP PROTECTION AG, priority 2019, published 2024).

Key:
Type in all cases: in vivo
[1] = tested on: soybean (Glycine max) explants; assay: Comparison of greenhouse selection effectiveness between BSU and Ecomazayr for ALS selectable marker
Experimental: (§1) The explants were transplanted to soil for further selection and development of transgenic shoots after immersed in Soy2 medium for 2 day and in Soy2 medium with 2 μM bensulfuron-methyl for 5 days. The selection is performed for three weeks in GH by application with various concentrations of bensulfuron-methyl using mounted cotton ball or daily liquid spay methods. The recovered shoots from each treatment were subjected for Taqman assay to confirm the transgenic frequency. The application solution contains bensulfuron-methyl, 1 g/L MES and BAP (2 mg./L for first week, and 1 mg/L for second and third weeks, or 2 mg/L or 1 mg/l for three weeks). Alternatively, the transplanted explants in soil can be directly spayed with selection solution containing commercial herbicide Ecomazayr (1-8 μM isopropylamine salt of imazapyr), 1-2 mg/L BAP and 1 g/L MES for 3 weeks.
An experiment was conducted to compare the selection effectiveness in greenhouse between BSU and commercial herbicide Ecomazayr for ALS selectable marker using current transformation method.

[2] = tested on: soybean (Glycine max) explants; assay: Semi-in-planta soybean transformation, greenhouse bensulfuron-methyl selection for ALS marker, Taqman assay of recovered shoots; conditions: for Escape rate / Number of events / TF: 3 weeks greenhouse selection
Experimental: (§2) Sterilized mature soybean (Glycine max) seeds were used. Prior to Agrobacterium inoculation, seeds were soaked in sterilized H2O or liquid medium Soy1 for overnight (12-18 hours) at 22-24° C. Liquid medium Soy 1 contains 3.1 g/L Gamborg's B5 basal medium and 2 mg/L BAP
(§3) The seed coat was removed from the soaked seed. One of the cotyledons and both primary leaves were carefully removed and discarded. Next, the region containing the epicotyl, apical meristem and the cotyledonary node were wounded by making several cuts with the sharp end of scalpel blade.
(§4) Agrobacterium tumefaciens strain [Chry5d3 recA−] was used. The Agrobacterium harbored a binary vector containing a selectable marker and gene of interest, specifically construct 23093 containing EPSPS selectable marker driven by translation elongation factor EF-1 alpha/Tu promoter and AmCyan gene driven by Cestrum Yellow leaf curl virus promoter (prCMP), construct18891 containing codon-optimized Acetolactate synthase (ALS) double mutant (P191A, W568L) from Nicotiana tabacum for soybean and AmCyan gene driven by prCMP, and construct 22296 containing codon-optimized Acetolactate synthase (ALS) double mutant (P191A, W568L) from Nicotiana tabacum for soybean driven by translation elongation factor EF-1 alpha/Tu promoter, including the first intron and neighboring 5′-UTR, from soybean (Williams 82) prGmEF-02. Agrobacterium culture was streaked from −80° C. from glycerol stock onto YP plates containing 100 mg/L ampicillin and 500 mg/L spectinomycin appropriate antibiotics and grown in a 23° C. incubator. Before inoculation with explants, Agrobacterium cells were collected from the plate and were uniformly suspended in liquid infection medium SoyInf in a sterile disposable 50 ml centrifuge tube and diluted to OD A660 of approximately 0.3 to 0.6. A final concentration of 40-80 mg/L (200-400 uM) acetosyringone was added to induce virulence gene expression. Dithiothreitol (DTT) was added to a final concentration of 150 μg/ml. SoyInf contains 1.1 g/L MS basal salt mixture, 20 g/L sucrose, 10 g/L glucose, 4 g/L MES, 1 ml/L Gamborg's B5 vitamins (1000×) and 2 mg/L zeatin riboside.
(§5) The wounded explants were immediately infected with Agrobacterium by immersing them with the Agrobacterium suspension, and then incubated for 18 hours in dark at room temperature. After infection, the explants were removed from the Agrobacterium suspension and transferred to petri dishes for co-cultivation in an airtight plastic container. The co-cultivation plates were incubated for 3-5 days at 22±1° C. in the dark, with explants placed adaxial side up.
as §1
To obtain an optimal selection conditions and methods for ALS selection, a side-by-side comparison experiment was conducted. Transgenic events can be recovered without selection in Greenhouse at more than 18% transformation frequency with 73% escape rate. […] By using cotton ball method for application of bensulfuron-methyl, high transformation frequency (˜40%) with high single copy event rate (50%) was obtained. […]

[3] = tested on: soybean (Glycine max) explants; assay: Semi-in-planta soybean transformation, greenhouse glyphosate selection for EPSPS marker, Taqman assay of recovered shoots; conditions: 3 weeks greenhouse selection, 48 explants
Experimental: as §2, §3, §4, §5
After 2 day in Soy2 medium and 5 days in Soy2 medium with 100 μM glyphosate, the explants were transplanted to soil for further selection and development of transgenic shoots. The selection is performed for three weeks in GH by application with various concentrations of glyphosate using mounted cotton ball or daily liquid spay methods. The recovered shoots from each treatment were subjected for Taqman assay to confirm the transgenic frequency. The application solution contains glyphosate, 1 g/L MES and BAP (2 mg./L for first week, and 1 mg/L for second and third weeks, or 2 mg/L or 1 mg/l for three weeks).
To obtain an optimal selection conditions and methods for EPSPS selection, a side-by-side comparison experiment was conducted. Transgenic events can be recovered without selection in Greenhouse at 18% transformation frequency with more than 80% escape rate. […] Similar results can also be achieved by daily spay of 150 μM or more of glyphosate with few escapes.

[4] = greenhouse selection 1 μM imazapyr, 56 explants
[5] = greenhouse selection 2 μM imazapyr, 56 explants
[6] = greenhouse selection 3 μM imazapyr, 56 explants
[7] = greenhouse selection 4 μM imazapyr, 56 explants
[8] = greenhouse selection 5 μM imazapyr, 56 explants
[9] = greenhouse selection 6 μM imazapyr, 56 explants
[10] = greenhouse selection 7 μM imazapyr, 52 explants
[11] = greenhouse selection 8 μM imazapyr, 54 explants
[12] = cotton ball, 3 μM bensulfuron-methyl, 40 explants
[13] = cotton ball, 6 μM bensulfuron-methyl, 48 explants
[14] = cotton ball, 9 μM bensulfuron-methyl, 48 explants
[15] = daily spray, 3 μM bensulfuron-methyl, 48 explants
[16] = daily spray, 4 μM bensulfuron-methyl, 48 explants
[17] = daily spray, 5 μM bensulfuron-methyl, 48 explants
[18] = daily spray, 6 μM bensulfuron-methyl, 48 explants
[19] = daily spray, 7 μM bensulfuron-methyl, 48 explants
[20] = daily spray, 8 μM bensulfuron-methyl, 48 explants
[21] = daily spray, 9 μM bensulfuron-methyl, 48 explants
[22] = daily spray, 10 μM bensulfuron-methyl, 48 explants
[23] = greenhouse selection 3 μM BSU, 56 explants

With `CC(C)C1(C)N=C(c2ncccc2C(=O)O)NC1=O` (stereo not shown) [imazapyr] the “selection effectiveness in greenhouse” value ([1]; ALS selectable marker, recovery of ALS transgenic plants) was “as effective as BSU”, the Number of escapes [1, 4] was 1 and the Number of events [1, 4] was 15. For the same compound, the “Transformation frequency (%)” value [1, 4] was 26.8%, the Number of escapes [1, 5] was 0 and the Number of events [1, 5] was 12. The “Transformation frequency (%)” value [1, 5] was 21.4%, the Number of escapes [1, 6] was 0 and the Number of events [1, 6] was 20. For the same compound, the “Transformation frequency (%)” value [1, 6] was 35.7%, the Number of escapes [1, 7] was 0 and the Number of events [1, 7] was 14. The “Transformation frequency (%)” value [1, 7] was 25.0%, the Number of escapes [1, 8] was 0 and the Number of events [1, 8] was 8. For the same compound, the “Transformation frequency (%)” value [1, 8] was 14.3%, the Number of escapes [1, 9] was 0 and the Number of events [1, 9] was 10. For the same compound, the “Transformation frequency (%)” value [1, 9] was 17.9%, the Number of escapes [1, 10] was 0 and the Number of events [1, 10] was 10. For the same compound, the “Transformation frequency (%)” value [1, 10] was 19.2%, the Number of escapes [1, 11] was 0 and the Number of events [1, 11] was 10. The “Transformation frequency (%)” value [1, 11] was 18.5%.

For `COC(=O)c1ccccc1CS(=O)(=O)NC(=O)Nc1nc(OC)cc(OC)n1` [bensulfuron-methyl], the escape events recovered ([2]; 3 μM or higher concentrations of bensulfuron-methyl) was “No escape event”, the Escape rate [2, 12] was 0.0% and the Number of events [2, 12] was 16. It also gave a TF [2, 12] of 40.0%, an Escape rate [2, 13] of 0.0% and a Number of events [2, 13] of 13. The TF [2, 13] was 27.1%, the Escape rate [2, 14] was 0.0% and the Number of events [2, 14] was 9. The TF [2, 14] was 18.8%, the Escape rate [2, 15] was 0.0% and the Number of events [2, 15] was 18. The TF [2, 15] was 37.5%, the Escape rate [2, 16] was 0.0% and the Number of events [2, 16] was 10. The TF [2, 16] was 20.8%, the Escape rate [2, 17] was 0.0% and the Number of events [2, 17] was 10. The TF [2, 17] was 20.8%, the Escape rate [2, 18] was 0.0% and the Number of events [2, 18] was 10. It also gave a TF [2, 18] of 20.8%, an Escape rate [2, 19] of 0.0% and a Number of events [2, 19] of 6. For the same compound, the TF [2, 19] was 12.5%, the Escape rate [2, 20] was 0.0% and the Number of events [2, 20] was 11. The TF [2, 20] was 22.9%, the Escape rate [2, 21] was 0.0% and the Number of events [2, 21] was 12. It also gave a TF [2, 21] of 25.0%, an Escape rate [2, 22] of 0.0% and a Number of events [2, 22] of 8. It also gave a TF [2, 22] of 16.7%, a Number of escapes [1, 23] of 0 and a Number of events [1, 23] of 12. The “Transformation frequency (%)” value [1, 23] was 21.4%.

For `O=C(O)CNCP(=O)(O)O` [glyphosate], the Escape rate ([3]; cotton ball, 100 μM glyphosate) was 2.1%, the Number of events ([3]; cotton ball, 100 μM glyphosate) was 16 and the “Transformation Frequency” value ([3]; cotton ball, 100 μM glyphosate) was 33.3%. The Escape rate ([3]; cotton ball, 125 μM glyphosate) was 0.0%, the Number of events ([3]; cotton ball, 125 μM glyphosate) was 25 and the “Transformation Frequency” value ([3]; cotton ball, 125 μM glyphosate) was 52.1%. For the same compound, the Escape rate ([3]; cotton ball, 150 μM glyphosate) was 0.0%, the Number of events ([3]; cotton ball, 150 μM glyphosate) was 24 and the “Transformation Frequency” value ([3]; cotton ball, 150 μM glyphosate) was 50.0%. For the same compound, the Number of events ([3]; cotton ball, 175 μM glyphosate) was 23, the “Transformation Frequency” value ([3]; cotton ball, 175 μM glyphosate) was 47.9% and the Escape rate ([3]; daily spray, 100 μM glyphosate) was 2.1%. The Number of events ([3]; daily spray, 100 μM glyphosate) was 11, the “Transformation Frequency” value ([3]; daily spray, 100 μM glyphosate) was 22.9% and the Escape rate ([3]; daily spray, 125 μM glyphosate) was 6.3%. For the same compound, the Number of events ([3]; daily spray, 125 μM glyphosate) was 13, the “Transformation Frequency” value ([3]; daily spray, 125 μM glyphosate) was 27.1% and the Escape rate ([3]; daily spray, 150 μM glyphosate) was 2.1%. The Number of events ([3]; daily spray, 150 μM glyphosate) was 20, the “Transformation Frequency” value ([3]; daily spray, 150 μM glyphosate) was 41.7% and the Escape rate ([3]; daily spray, 175 μM glyphosate) was 6.3%. For the same compound, the Number of events ([3]; daily spray, 175 μM glyphosate) was 22, the “Transformation Frequency” value ([3]; daily spray, 175 μM glyphosate) was 45.8% and the Escape rate ([3]; daily spray, 200 μM glyphosate) was 6.3%. For the same compound, the Number of events ([3]; daily spray, 200 μM glyphosate) was 20, the “Transformation Frequency” value ([3]; daily spray, 200 μM glyphosate) was 41.7% and the Escape rate ([3]; daily spray, 250 μM glyphosate) was 4.2%. For the same compound, the Number of events ([3]; daily spray, 250 μM glyphosate) was 15, the “Transformation Frequency” value ([3]; daily spray, 250 μM glyphosate) was 31.3% and the Escape rate ([3]; daily spray, 300 μM glyphosate) was 2.1%. For the same compound, the Number of events ([3]; daily spray, 300 μM glyphosate) was 23 and the “Transformation Frequency” value ([3]; daily spray, 300 μM glyphosate) was 47.9%.
